Data on 9 compounds can be found in ChEMBL document CHEMBL1139159, “Synthesis and anti-HIV-1 activities of novel podophyllotoxin derivatives” (Bioorg Med Chem Lett, 2007).

Data set [1] concerns C8166. As to the kind of experiment: Cytotoxicity against C8166 cells assessed as reduction in total cell number. It is filed as cell-based. Conditions: Homo sapiens.
In data set [2] the test system is Human immunodeficiency virus 1. As to the kind of experiment: Antiviral activity against HIV1 in C8166 cells assessed as inhibition of syncytia formation. Conditions: Human immunodeficiency virus 1, C8166. It is filed as functional, organism-based.
A short description of data set [3]: Therapeutic index, IC50 for C8166 cells to EC50 for HIV1. Type of data set: cell-based. Conditions: human, read-out: Ratio IC50/EC50.

Take `Cc1cn([C@H]2C[C@H](N=[N+]=N)[C@@H](CO)O2)c(=O)[nH]c1=O`: the IC50 (usually the concentration needed to halve the response being measured) in data set [1] stood at 500 µM. Also, the EC50 (commonly the concentration at which the effect is half-maximal) in data set [2] turned out to be 0.009 µM. The selectivity ratio in data set [3] is 55600.

For the compound `COc1cc([C@@H]2c3cc4c(cc3[C@H](O)[C@H]3COC(=O)[C@H]23)OCO4)cc(OC)c1OC` [PODOFILOX], the IC50 in data set [1] was less than 0.15 µM. Further, in data set [2], the EC50 was found to be 0.0029 µM. Moreover, the selectivity ratio in data set [3] is 53.3.

With `COc1cc([C@@H]2c3cc4c(cc3[C@@H](NC(=O)OC[C@@H]3C=C[C@H](n5cc(C)c(=O)[nH]c5=O)O3)[C@H]3COC(=O)[C@H]23)OCO4)cc(OC)c1OC`, in data set [1], the IC50 was determined as 68.2 µM. For the same compound, the EC50 in data set [2] was determined as 5.46 µM. In data set [3], the selectivity ratio came to 12.5.

As for `COc1cc([C@@H]2c3cc4c(cc3[C@@H](NC(=O)OC[C@@H]3C=C[C@H](n5cc(C)c(=O)[nH]c5=O)O3)[C@H]3COC(=O)[C@H]23)OCO4)cc(OC)c1O`, the IC50 in data set [1] was 79.1 µM. Also, the EC50 in data set [2] was found to be 0.17 µM. Further, the selectivity ratio in data set [3] came to 467.

Take `COc1cc([C@@H]2c3cc4c(cc3[C@H](NC(=O)OC[C@@H]3C=C[C@H](n5cc(C)c(=O)[nH]c5=O)O3)[C@H]3COC(=O)[C@H]23)OCO4)cc(OC)c1O`: the IC50 in data set [1] turned out to be 104 µM. Also, the EC50 in data set [2] came out at 0.29 µM. Moreover, the selectivity ratio in data set [3] stood at 355.

On to `COc1cc([C@@H]2c3cc4c(cc3[C@H](NC(=O)OC[C@@H]3C=C[C@H](n5cc(C)c(=O)[nH]c5=O)O3)[C@H]3COC(=O)[C@H]23)OCO4)cc(OC)c1OC`, for which the IC50 in data set [1] was found to be 3.39 µM. In addition, the EC50 in data set [2] came to 0.24 µM. The selectivity ratio in data set [3] was 14.4.

In the case of `COc1cc2c(cc1OC)[C@@H](NC(=O)OC[C@@H]1C=C[C@H](n3cc(C)c(=O)[nH]c3=O)O1)[C@H]1COC(=O)[C@@H]1[C@@H]2c1cc(OC)c(OC)c(OC)c1`, the IC50 in data set [1] was greater than 295 µM. Also, in data set [2], the EC50 was determined as 4.39 µM. Also, in data set [3], the selectivity ratio is greater than 67.1.

For `COc1cc2c(cc1OC)[C@@H](C#N)[C@H]1COC(=O)[C@@H]1[C@@H]2c1cc(OC)c(OC)c(OC)c1`, in data set [1], the IC50 is 138 µM. In addition, in data set [2], the EC50 is 1.05 µM. Also, in data set [3], the selectivity ratio was 131.

For `COc1cc2c(cc1OC)[C@@H](C(=O)O)[C@H]1COC(=O)[C@@H]1[C@@H]2c1cc(OC)c(OC)c(OC)c1`, the IC50 in data set [1] is greater than 437 µM. Besides, the EC50 in data set [2] came out at 46.9 µM. Further, the selectivity ratio in data set [3] was greater than 9.31.
